# Experimental data from patent US8940727B2, “Benzazepine compound” (Otsuka Pharmaceutical Co., Ltd., priority 2009, dated 2015).
# Assay: Metabolic stability assay in human liver microsomes
# Type: in vitro ADME
# Conditions: for microsomal CLint at 1 μM: human liver microsomes 0.2 mg/mL, test compound 1 μM, NADPH/NADH, n = 4, read-out: hepatic intrinsic clearance (Clint)
# Protocol: The following reaction system was prepared with reference to the method disclosed by Obach, and that disclosed by Jones et al. (References 1 and 2), and the metabolic stability thereof was evaluated. Note that the human liver microsomes used were purchased from BD Gentest. The test compound was dissolved in DMSO to have a concentration of 10 mM and diluted with acetonitrile in such a manner that its concentration became 100 μM.
# A reaction system without a coenzyme was preincubated at 37° C. for 5 minutes, and a coenzyme was then added to start the reaction. After the addition of the coenzyme, the incubation was performed at selected time intervals, i.e., 0, 5, 10, 20, 30 and 60 minutes to extract a portion of the reaction mixture. The extracted reaction mixture was added to an acetonitrile solution containing an internal standard substance and the reaction was then terminated.
# After the reaction was terminated, the resulting mixture was centrifuged, the supernatant was poured into a liquid chromatograph tandem mass spectrometer (LC-MS/MS) to determine the level of unchanged substance remaining in the reaction system. Ionization was performed by electro-spray ionization (ESI) in a positive ion detection mode. Here, selected reaction monitoring (MRM) using preset precursor ions and product ions was employed.
# The remaining ratio of the test compound was calculated by the following equation. Remaining ratio=(peak area of the test compound at the reaction time of t minutes/peak area of the internal standard substance)÷(peak area of the test compound at the reaction time of 0 minutes/peak area of the internal standard substance)
# A nonlinear least-squares analysis was performed in terms of the remaining ratio and incubation time to obtain the elimination rate constant (0.693/t1/2), and, further, the hepatic intrinsic clearance (Clint) was obtained using the following Formula (1). Clint (μL/min/mg)=(0.693/t1/2)÷0.2 (mg/mL)×1000 (1) […]
Structure (SMILES),microsomal CLint at 1 μM [µL/min/mg],"metabolic stability compared to tolvaptan (human liver microsomes, two-tailed Dunnett's test, p<0.001)"
"[2H]C1([2H])CC([2H])([2H])C([2H])(O)c2cc(Cl)ccc2N1C(=O)c1ccc(NC(=O)c2ccccc2C)cc1C (stereo not drawn) [Example 4, N-(4-(7-chloro-5-hydroxy-2,2,4,4,5-pentadeutero-1H-benzo[b]azepine-1-carbonyl)-3-methylphenyl)-2-methylbenzamide]",166 ± 5.3,significantly improved metabolic stability compared to tolvaptan
"Cc1ccccc1C(=O)Nc1ccc(C(=O)N2CCCC(O)c3cc(Cl)ccc32)c(C)c1 (stereo not drawn) [Tolvaptan, tolvaptan, reference compound]",214 ± 4.3,–
